Data as given in patent US20230086683A1, “PLATELET STORAGE METHODS AND COMPOSITIONS” (Platefuse, Inc., priority 2020, published 2023).

tested on: washed human platelet suspension; assay: Inhibition of collagen-induced platelet aggregation (Lumi-Aggregometer); format: cell-based; details: washed human platelets, 37° C., 2 min preincubation, collagen 1-4 μg/ml, read out at 6 min after induction, read-out: IC50 (concentration at which 50% aggregation is reached), platelet aggregation inhibitors
Method: Platelet shape change in washed platelets was monitored using an aggregometer and the decrease in light transmittance following addition of an agonist (Huzoor et al., 1993). For the purpose of this analysis, collagen was used as the agonist. Briefly, a washed human platelet suspension was incubated at 37° C. in a Lumi-Aggregometer (Chrono-Log Corporation) with stirring at 900 rpm, followed by the addition of dimethylsulfoxide (DMSO) as a control vehicle, or various compounds dissolved in DMSO. After incubating the samples with the respective compound for 2 minutes, platelet aggregation was induced by, adding collagen (1-4 μg/ml) and the relative aggregation value was read out at 6 min after the induction. A dose response for each compound was derived.

| IC50 | Compound |
| --- | --- |
| 16.2 µM | O=C(NNc1ccnc2ccccc12)c1ccc(Cl)c(Cl)c1 [UC-177617] |
| 1.5 µM | O=C(NNc1ccnc2c(C(F)(F)F)cccc12)c1ccc(Cl)c(Cl)c1 [UC-177618] |
| 1.4 µM | O=C(NNc1ccnc2cc(Cl)ccc12)c1ccc(Cl)c(Cl)c1 [UC-177619] |
| 10.1 µM | O=C(NNc1ccnc2ccccc12)c1cc2ccccc2[nH]1 [UC-177626] |
| 4.3 µM | O=C(NNc1ccnc2cc(C(F)(F)F)ccc12)c1cc2ccccc2[nH]1 [UC-177627] |
| 5.8 µM | O=C(NNc1ccnc2c(C(F)(F)F)cccc12)c1cc2ccccc2[nH]1 [UC-177628] |
| 2.3 µM | O=C(NNc1ccnc2cc(Cl)ccc12)c1cc2ccccc2[nH]1 [UC-177629] |
| 2.3 µM | Cc1ccc(C(=O)NNc2ccnc3c(C(F)(F)F)cccc23)cc1 [UC-177633] |
| 6.7 µM | Cc1ccc(C(=O)NNc2ccnc3cc(Cl)ccc23)cc1 [UC-177634] |
